# Where “and” joins values, the source holds several entries; their conditions need not be identical. Equal entries are not always repeated.
# System: patients with prior myocardial infarction (CARE study)
# Test: CARE aligned analysis (prospective and case/control design, white males): association of genotypes with pravastatin efficacy (Tables 13, 15)
# Format: in vivo, human
# Settings: for Pravastatin Patients n/total / Pravastatin Patients (%) / 2 Rare Alleles (%), Pravastatin Patients: F&NF MI; for Pravastatin Patients n/total / Pravastatin Patients (%): WM; for Pravastatin vs placebo odds ratio, 0 rare alleles / Pravastatin vs placebo odds ratio, 1 rare allele / Pravastatin vs placebo odds ratio, 2 rare alleles / 2 rare alleles n/total (%), pravastatin patients: CARE, F MI/SD/NF MI; for Pravastatin vs. Placebo Odds Ratio (95% CI), Patients with 0 Rare Alleles / n/total (%) cases, Pravastatin Patients, 0 Rare Alleles: PON1 hCV2548962, 0 rare alleles; for Pravastatin vs. Placebo Odds Ratio (95% CI), Patients with 0 Rare Alleles / n/total (%) cases, Pravastatin Patients, 0 Rare Alleles / Pravastatin vs. Placebo Odds Ratio (95% CI), Patients with 1 Rare Allele / n/total (%) cases, Pravastatin Patients, 1 Rare Allele / Pravastatin vs. Placebo Odds Ratio (95% CI), Patients with 2 Rare Alleles / n/total (%) cases, Pravastatin Patients, 2 Rare Alleles: White Males; for Pravastatin vs. Placebo Odds Ratio (95% CI), Patients with 1 Rare Allele / n/total (%) cases, Pravastatin Patients, 1 Rare Allele: PON1 hCV2548962, 1 rare allele
# Procedure: The data presented in Table 8 based on an association of genotypes with pravastatin efficacy of the CARE samples were further analyzed and presented in Table 13. The further analysis was performed to align the data obtained from the analysis of the CARE samples, which was a prospective study, to the analysis of the WOSCOP samples, which was a case/control study. Table 13 also presents an analysis of the association of genotypes with pravastatin efficacy in the WOSCOPs samples. Relative to the analysis performed on the data presented in Table 8, there are two significant differences to determine if the SNP influenced pravastatin efficacy. Data obtained from the CARE samples were separated by study design into two groups, those in the prospective study design group and those in the case/control study design group. The original care study contained 16 protocol defined cardiovascular disease defined endpoints and 150 other phenotypes. […] The control groups used to compare the data were also divided into two groups, the “all possible” control group and the “cleaner” control group. […] Because the participants in the WOSCOPs trial were all white males, only data obtained from white males in the CARE study were analysed. Data from the “all possible” and “cleaner” controls were compared to data obtained from the cases in the prospective study design while only data from “cleaner” controls were compared to cases in the case/control study design. The data from the case/control cohorts were analysed using conditional logistic regression (as opposed to logistic regression used for the original anaylsis).
# The anaylsis was refined as described for both Tables 13 and 14.
# [1] = NPC1 hCV7490135, 0 Rare Alleles, CARE Prospective, Cleaner controls
# [2] = NPC1 hCV7490135, 1 Rare Allele, CARE Prospective, Cleaner controls
# [3] = NPC1 hCV25472673, 0 Rare Alleles, CARE Case/Control, Cleaner controls
# [4] = NPC1 hCV25472673, 0 Rare Alleles, CARE Prospective, Cleaner controls
# [5] = NPC1 hCV25472673, 1 Rare Allele, CARE Case/Control, Cleaner controls
# [6] = NPC1 hCV25472673, 1 Rare Allele, CARE Prospective, Cleaner controls
# [7] = PLAB hCV7494810, 0 Rare Alleles, CARE Case/Control, All Possible controls
# [8] = PLAB hCV7494810, 0 Rare Alleles, CARE Case/Control, Cleaner controls
# [9] = PLAB hCV7494810, 0 Rare Alleles, CARE Prospective, All Possible controls
# [10] = PLAB hCV7494810, 1 Rare Allele, CARE Case/Control, All Possible controls
# [11] = PLAB hCV7494810, 1 Rare Allele, CARE Case/Control, Cleaner controls
# [12] = PLAB hCV7494810, 1 Rare Allele, CARE Prospective, All Possible controls
# [13] = PLAB hCV7494810, Case/Control, listed as Pravastatin
# [14] = PLAB hCV7494810, Prospective, listed as Pravastatin
# [15] = CARE Case/Control, Fatal & Nonfatal MI, Cleaner controls
# [16] = CARE Prospective, Fatal & Nonfatal MI, Cleaner controls
# [17] = CARE Prospective, Total CHD Events, All Possible controls
# [18] = PON1 hCV2548962, 2 rare alleles, CARE Case/Control, Fatal & Nonfatal MI, Cleaner controls
# [19] = PON1 hCV2548962, 2 rare alleles, CARE Prospective, Fatal & Nonfatal MI, Cleaner controls
structure (smiles),measurement,setting,value
CC[C@H](C)C(=O)O[C@H]1C[C@H](O)C=C2C=C[C@H](C)[C@H](CC[C@@H](O)C[C@@H](O)CC(=O)O)[C@H]21 [pravastatin],Pravastatin Patients n/total,"NOS3 hCV3219460, 1 Rare Allele, CARE Prospective, Cleaner controls",64/366
same,"Pravastatin vs placebo odds ratio, 0 rare alleles","NOS3 hCV3219460, Case/Control",0.76 and 0.67
same,"Pravastatin vs placebo odds ratio, 1 rare allele","NOS3 hCV3219460, Case/Control",1.04 and 0.98
same,"Pravastatin vs placebo odds ratio, 2 rare alleles","NOS3 hCV3219460, Case/Control",0.27 and 0.23
same,"Pravastatin vs placebo odds ratio, 0 rare alleles","NOS3 hCV3219460, Prospective",0.79 and 0.70
same,"Pravastatin vs placebo odds ratio, 1 rare allele","NOS3 hCV3219460, Prospective",1.04 and 0.95
same,"Pravastatin vs placebo odds ratio, 2 rare alleles","NOS3 hCV3219460, Prospective",0.27 and 0.22
same,Pravastatin Patients (%),[1],(18.3%)
same,Pravastatin Patients n/total,[1],44/240
same,Pravastatin Patients (%),[2],(13.7%)
same,Pravastatin Patients n/total,[2],56/408
same,"2 Rare Alleles (%), Pravastatin Patients","NPC1 hCV7490135, CARE Prospective",(13.8%)
same,Pravastatin Patients (%),[3],(17.4%)
same,Pravastatin Patients n/total,[3],53/304
same,Pravastatin Patients (%),[4],(17.3%)
same,Pravastatin Patients n/total,[4],53/307
same,Pravastatin Patients (%),[5],(13.5%)
same,Pravastatin Patients n/total,[5],51/378
same,Pravastatin Patients (%),[6],(13.2%)
same,Pravastatin Patients n/total,[6],51/386
same,"2 Rare Alleles (%), Pravastatin Patients","NPC1 hCV25472673, CARE Case/Control",(15.0%)
same,"2 Rare Alleles (%), Pravastatin Patients","NPC1 hCV25472673, CARE Prospective",(14.7%)
same,"2 rare alleles n/total (%), pravastatin patients","NPC1 hCV25472673, Case/Control",(12.6%)
same,"Pravastatin vs placebo odds ratio, 0 rare alleles","NPC1 hCV25472673, Case/Control",1.21
same,"Pravastatin vs placebo odds ratio, 1 rare allele","NPC1 hCV25472673, Case/Control",0.65
same,"Pravastatin vs placebo odds ratio, 2 rare alleles","NPC1 hCV25472673, Case/Control",0.34
same,"2 rare alleles n/total (%), pravastatin patients","NPC1 hCV25472673, Prospective",(8.7%)
same,"Pravastatin vs placebo odds ratio, 0 rare alleles","NPC1 hCV25472673, Prospective",1.25
same,"Pravastatin vs placebo odds ratio, 1 rare allele","NPC1 hCV25472673, Prospective",0.71 and 0.62
same,"Pravastatin vs placebo odds ratio, 2 rare alleles","NPC1 hCV25472673, Prospective",0.49 and 0.34
same,Pravastatin Patients (%),[7],(12.2%)
same,Pravastatin Patients n/total,[7],84/691
same,Pravastatin Patients (%),[8],(17.5%)
same,Pravastatin Patients n/total,[8],84/481
same,Pravastatin Patients (%),[9],(11.9%)
same,Pravastatin Patients n/total,[9],84/706
same,Pravastatin Patients (%),[10],(8.5%)
same,Pravastatin Patients n/total,[10],38/448
same,Pravastatin Patients (%),[11],(12.6%)
same,Pravastatin Patients n/total,[11],38/302
same,Pravastatin Patients (%),[12],(8.4%)
same,Pravastatin Patients n/total,[12],38/455
same,"2 Rare Alleles (%), Pravastatin Patients","PLAB hCV7494810, CARE Prospective",(6.9%)
same,"2 rare alleles n/total (%), pravastatin patients","PLAB hCV7494810, Case/Control",(8.3%)
same,"Pravastatin vs placebo odds ratio, 0 rare alleles","PLAB hCV7494810, Case/Control",0.95
same,"Pravastatin vs placebo odds ratio, 0 rare alleles",[13],1.03
same,"Pravastatin vs placebo odds ratio, 1 rare allele",[13],0.50 and 0.44
same,"Pravastatin vs placebo odds ratio, 2 rare alleles",[13],1.62 and 1.45
same,"2 rare alleles n/total (%), pravastatin patients","PLAB hCV7494810, Prospective",(8.3%)
same,"Pravastatin vs placebo odds ratio, 0 rare alleles","PLAB hCV7494810, Prospective",0.93
same,"Pravastatin vs placebo odds ratio, 0 rare alleles",[14],1.03
same,"Pravastatin vs placebo odds ratio, 1 rare allele",[14],0.52 and 0.46
same,"Pravastatin vs placebo odds ratio, 2 rare alleles",[14],1.61 and 1.24
same,"Pravastatin vs. Placebo Odds Ratio (95% CI), Patients with 0 Rare Alleles",[15],0.84 (0.58 to 1.22)
same,"n/total (%) cases, Pravastatin Patients, 0 Rare Alleles",[15],67/416 (16.1%)
same,"Pravastatin vs. Placebo Odds Ratio (95% CI), Patients with 0 Rare Alleles",[16],0.81 (0.56 to 1.16)
same,"n/total (%) cases, Pravastatin Patients, 0 Rare Alleles",[16],67/423 (15.8%)
same,"Pravastatin vs. Placebo Odds Ratio (95% CI), Patients with 0 Rare Alleles",[17],0.77 (0.61 to 0.98)
same,"n/total (%) cases, Pravastatin Patients, 0 Rare Alleles",[17],183/613 (29.9%)
same,"Pravastatin vs. Placebo Odds Ratio (95% CI), Patients with 1 Rare Allele",[15],0.63 (0.42 to 0.95)
same,"n/total (%) cases, Pravastatin Patients, 1 Rare Allele",[15],50/335 (14.9%)
same,"Pravastatin vs. Placebo Odds Ratio (95% CI), Patients with 1 Rare Allele",[16],0.64 (0.31 to 1.36)
same,"n/total (%) cases, Pravastatin Patients, 1 Rare Allele",[16],50/340 (14.7%)
same,"Pravastatin vs. Placebo Odds Ratio (95% CI), Patients with 1 Rare Allele",[17],0.94 (0.58 to 1.54)
same,"n/total (%) cases, Pravastatin Patients, 1 Rare Allele",[17],151/504 (30.0%)
same,ORs of fatal or non-fatal MI when treated with pravastatin,"PON1 hCV2548962, 2 rare alleles, CARE and WOSCOPs sample sets",0.28-0.34
same,"Pravastatin vs. Placebo Odds Ratio (95% CI), Patients with 2 Rare Alleles",[18],0.29 (0.12 to 0.71)
same,"n/total (%) cases, Pravastatin Patients, 2 Rare Alleles",[18],9/79 (11.4%)
same,"Pravastatin vs. Placebo Odds Ratio (95% CI), Patients with 2 Rare Alleles",[19],0.32 (0.11 to 0.95)
same,"n/total (%) cases, Pravastatin Patients, 2 Rare Alleles",[19],9/80 (11.3%)
same,"Pravastatin vs. Placebo Odds Ratio (95% CI), Patients with 2 Rare Alleles","PON1 hCV2548962, 2 rare alleles, CARE Prospective, Total CHD Events, All Possible controls",0.28 (0.13 to 0.60)

# Source: patent US9932637B2, “Genetic polymorphisms associated with cardiovascular disorders and drug response, methods of detection and uses thereof” (CELERA CORPORATION, priority 2003, dated 2018)
